The record followed here is patent publication US11952362B2, “Compositions and methods for treating epigenetic disease” (The Regents of the University of California, priority 2018, dated 2024).

One data set relates to TNBS colitis. Kind of data set: TNBS colitis in mice. It counts as in vivo. The settings on record: i.c. administration, 50 mg/kg daily for 5 days, day 4, vs vehicle-treated mice. Here is the method: Male C57BL/6J mice 8-10 weeks old were purchased from The Jackson Laboratory (Sacramento, CA, USA). Mice were housed 4 per cage, maintained on a 12:12 hour light-dark cycle and given access to food and water ad libitum. Following an acclimatization period of 3 to 5 days, trinitrobenzene sulfonic acid (TNBS, Millipore Sigma, St. Louis, MO, USA) colitis was induced by intracolonic (i.c.) injection of 0.05 ml TNBS solution (5 mg in 40% ethanol) via a polyethylene cannula (BD Intramedic PE-20 tubing, Thermo Fisher Scientific, Santa Clara, CA, USA) inserted 3.5 cm from the anal verge under isoflurane anesthesia (4% in O2 induction, 2.5-3% maintenance). Control mice received an injection of 40% ethanol (0.05 ml, i.c.). To test the effectiveness of the HDAC analogs, mice received a daily injection (0.1 ml, i.c.) of a selective HDAC class II inhibitor analog (50 mg/kg MJK001-013) or vehicle (5% dimethyl sulfoxide, Millipore Sigma) beginning one day prior to TNBS colitis induction (day −1) for a period of 5 days. Separate groups of mice received HDAC inhibitors or vehicle administered by daily oral gavage (50 mg/kg, 0.25 ml, p.o.). All analogs tested were first dissolved in dimethyl sulfoxide (DMSO) with rapid vortexing and subsequent dilution to 5% in sterile phosphate buffered saline (PBS; Gibco, Thermo Fisher Scientific). Vehicle contained 5% DMSO in sterile PBS. Prior to use, all solids were stored in amber (light-blocking) storage vials at 4° C. On the first day of administration, stock solutions were prepared, aliquoted and stored at −20° C. for daily use. Upon thawing, each aliquot was vortexed prior to intracolonic injection (via a polyethylene cannula) or oral gavage (20 ga×38 mm, Instech, Thermo Fisher Scientific). Following all in vivo experiments, animals were euthanized on day 4 by CO2 inhalation and cervical dislocation and the distal colons removed for further study.
Disease severity was assessed by weight loss and measurement of colon length and determination of clinical and histological damage scores on day 4 of the protocol. Briefly, clinical scores were calculated on a scale of 0-3 for degree of weight loss, bleeding, stool consistency and presence of rectal prolapse. Sections of colon (5 μm) fixed in 10% formalin, paraffin-embedded and stained with hematoxylin and eosin (H&E) were used for histological scoring using an AxioImager. Z1 microscope equipped with AxioVision software version 4.6 (Zeiss, Jena, Germany). Scoring was performed by two independent investigators blinded to the treatment conditions and resulting scores averaged. Scores were assigned based on the degree of crypt damage (0-4), polymorphonuclear neutrophil (PMN) infiltrate (0-3), erosion (0-3), and edema (0-3).
Statistical analyses were performed using GraphPad Prism (Version 5.0a; GraphPad Software, La Jolla, CA, USA). Differences were determined by unpaired t-test, 1-way analysis of variance, or a 2-way analysis of variance with Tukey's post-test. A p value <0.05 was considered to be statistically significant. Data presented are means±SEM for n animals.
Novel chemical HDAC inhibitors were developed aiming to target specific isoforms of the HDAC Class IIA members. Overall, as shown above, compounds have been synthesized, named MJK-001, -002, -003, -004, -005, -006, -007, -008, -009, -010, -011, -012 & -013. The effect of selective HDAC class IIA isoform inhibition during development of colitis in mice in vivo during TNBS administration was assessed. This mouse model is known to recapitulate many features of human Crohn's Disease. Mice received either an intracolonic (i.c.) injection or oral delivery (p.o.) of the MJK compounds once daily for a period of 5 days and health status, weight loss, and disease activity were monitored. Mice (male C57BL/6J, 8-10 wks old) are weighed and monitored daily. On the final day, blood, feces, and colonic samples for RNA, protein and histology are collected for downstream analysis. […]

Data set [1] in a line: Water solubility of MJK compounds. It counts as physicochemical. An excerpt:
Solubility of MJK compounds: The development of an oral formulation for patients with auto-immune diseases, including Crohn's Disease, is preferential and less expensive, avoiding the need of hospitalization in comparison to the intracolonic (enema) administration. Thus, the water solubility and physical properties of the MJK compounds were examined. […] MJK-008 is the highest soluble MJK compound.

The mark [2] stands for this setting: listed as MJK-013, hydrochloride, 50 mg/kg.
Where [3] appears, read: listed as MJK-005, hydrochloride, 50 mg/kg.

Counter-ions that a name gives are not always drawn.

On to `Cn1cccc1C(=O)/C=C/c1ccc(/C=C/C(=O)NO)n1C` [MJK007, (E)-N-Hydroxy-3-(1-methyl-5-((E)-3-(1-methyl-1H-pyrrol-2-yl)-3-oxoprop-1-en-1-yl)-1H-pyrrol-2-yl)acrylamide], for which the clinical score result is reported as “ns” in the data set with TNBS colitis (50 mg/kg) and “no significant differences” in the data set with TNBS colitis (listed as MJK-007, 50 mg/kg). Besides, the colon length result was “ns” with TNBS colitis (50 mg/kg) and “no significant differences” in the data set with TNBS colitis (listed as MJK-007, 50 mg/kg).
As to `Cn1c(/C=C/C(=O)NO)ccc1/C=C/C(=O)c1ccco1` [MJK012, (E)-3-(5-((E)-3-(Furan-2-yl)-3-oxoprop-1-en-1-yl)-1-methyl-1H-pyrrol-2-yl)-N-hydroxyacrylamide], in the data set on TNBS colitis (50 mg/kg), the clinical score entry is given as “ns” and the colon length entry is recorded as “ns”. For the same molecule, in the data set with TNBS colitis (listed as MJK-012, 50 mg/kg), the clinical score entry is listed as “no significant differences” and the colon length entry was “no significant differences”.
As to `COc1cccc(C(=O)/C=C/c2ccc(/C=C/C(=O)NO)n2C)c1` [MJK002, (E)-N-hydroxy-3-(5-((E)-3-(3-methoxyphenyl)-3-oxoprop-1-en-1-yl)-1-methyl-1H-pyrrol-2-yl)acrylamide], in the data set with TNBS colitis (50 mg/kg), the clinical score result is listed as “♦♦♦”; the colon length result is “♦”; the histological score entry was “did not yield significant differences and ns”. In addition, in the data set on TNBS colitis (listed as MJK-002, 50 mg/kg), the clinical score result was “statistical significance in the reduction of the clinical score” and the colon length entry is “increase of colon length”. In data set [1], the Solubility score result is “more soluble than MJK-001 and MJK-003”.
For `Cn1c(/C=C/C(=O)NO)ccc1/C=C/C(=O)c1ccccn1` [MJK010, (E)-N-Hydroxy-3-(1-methyl-5-((E)-3-oxo-3-(pyridin-2-yl)prop-1-en-1-yl)-1H-pyrrol-2-yl)acrylamide], in the data set on TNBS colitis (50 mg/kg), the clinical score entry is given as “ns” and the colon length entry is given as “ns”. Further, in the data set with TNBS colitis (listed as MJK-010, 50 mg/kg), the clinical score entry was “no significant differences” and the colon length result is given as “no significant differences”.
`Cn1c(/C=C/C(=O)NO)ccc1/C=C/C(=O)c1cccnc1` [MJK009, (E)-N-Hydroxy-3-(1-methyl-5-((E)-3-oxo-3-(pyridin-3-yl)prop-1-en-1-yl)-1H-pyrrol-2-yl)ac-rylamid p-toluenesulfonic acid salt]: in the data set on TNBS colitis (50 mg/kg), the clinical score result is reported as “♦” and the colon length result is reported as “ns”. In addition, in the data set with TNBS colitis (listed as MJK-009, 50 mg/kg), the clinical score result is reported as “reduction in clinical scoring” and the colon length entry is listed as “did not alter colon length”. In data set [1], the Solubility score result is “highest solubility”.
For `Cn1c(/C=C/C(=O)NO)ccc1/C=C/C(=O)c1cccc(Cl)c1` [MJK003, (E)-3-(5-((E)-3-(3-chlorophenyl)-3-oxoprop-1-en-1-yl)-1-methyl-1H-pyrrol-2-yl)-N-hydrox-yacrylamide], in the data set on TNBS colitis (50 mg/kg), the clinical score entry is “♦♦”; the colon length result is given as “♦”; the histological score entry is “did not yield significant differences and ns”. In the data set on TNBS colitis (listed as MJK-003, 50 mg/kg), the clinical score result is on record as “statistical significance in the reduction of the clinical score” and the colon length entry is recorded as “increase of colon length”.
As to `Cl.Cn1c(/C=C/C(=O)NO)ccc1/C=C/C(=O)c1cnccn1` [MJK013, (E)-N-Hydroxy-3-(1-methyl-5-((E)-3-oxo-3-(pyrazin-2-yl)prop-1-en-1-yl)-1H-pyrrol-2-yl)acrylamide hydrochloride], in the data set on TNBS colitis (hydrochloride, 50 mg/kg), the clinical score result was “ns” and the colon length entry is given as “ns”. Also, in the data set with TNBS colitis (setting [2]), the clinical score entry is “no significant differences” and the colon length entry is given as “no significant differences”.
As for `Cn1c(/C=C/C(=O)NO)ccc1/C=C/C(=O)c1ccncc1` [MJK011, (E)-N-hydroxy-3-(1-methyl-5-((E)-3-oxo-3-(pyridin-4-yl)prop-1-en-1-yl)-1H-pyrrol-2-yl)ac-rylamide], in the data set with TNBS colitis (50 mg/kg), the clinical score entry was “♦♦♦” and the colon length result is on record as “ns”. For the same molecule, in the data set on TNBS colitis (listed as MJK-011, 50 mg/kg), the clinical score result was “reduction in clinical scoring” and the colon length result was “did not alter colon length”. In addition, the Solubility score result in data set [1] is given as “worst solubility”.
`Cl.Cn1c(/C=C/C(=O)NO)ccc1/C=C/C(=O)c1ccsc1` [MJK005, (E)-N-hydroxy-3-(1-methyl-5-((E)-3-oxo-3-(thiophen-3-yl)prop-1-en-1-yl)-1H-pyrrol-2-yl)acrylamide hydrochloride]: in the data set on TNBS colitis (hydrochloride, 50 mg/kg), the clinical score result is given as “♦♦♦” and the colon length entry is reported as “ns”. In addition, in the data set on TNBS colitis (setting [3]), the clinical score entry is “reduction in clinical scoring” and the colon length entry is “did not alter colon length”.
